Laboratory results as given in patent publication US20240002809A1, “FRACTAL CUES SUPPORT HIERARCHICAL MATURATION OF CELLS VIA CURVATURE-INDUCED PATTERNING” (The Governing Council of the University of Toronto, priority 2022, published 2024).

Key:
Format in all cases: cell-based
[1] = tested on: Mosaic cells cultured on HF scaffolds; test: Mosaic assay Adriamycin dose test (fractal dimension of cell morphology); details: 0.5 and 1 μg/mL ADR; only with Mosaic cells cultured on HF scaffolds (not NT); FIG. 6e, 6f
From the text: To develop the mosaic assay, populations of fluorescent cells were mixed with optically silent cells and monitored for over 14 days in the mouse cell line, and over 5 days in the human cell line. For long-term live cell labeling, adenovirus transduction of eGFP (Vector Biolabs, #1060) was utilized at an MOI of 1000 in the mouse podocyte cell line, and MOI of 10 in the human podocyte cell line. Cells were transduced one day after seeding and attachment, when cultures were 75% confluent. Virus handling protocols were used, including wearing additional disposable PPE (lab coat, shoe covers, elbow-length and double gloves, and face mask). […]
The next day, virus was removed and puromycin was applied at 8 μg/mL to select fluorescent cells for 48 hours. […] The mosaic assay was assessed using the Zeiss […] super resolution confocal microscope to allow sufficient resolution to see interdigitating foot processes. […]
Images of single fluorescent cells from the mosaic assay (used in topography, model virus, Adriamycin, and patient serum experiments) were first processed using Zeiss's ZenDesk software to facilitate delineation of whole single cell morphology as follows: the FITC channel was adjusted by setting gamma to 2.5 and adjusting the white point to 30. […] The sequence was recorded as a macro to facilitate automation and thus performed blindly and equivalently to all sample images. […]

[2] = tested on: human podocyte cell line on HF substrates; test: YAP inhibition study, Mosaic assay fractal dimension of whole cell morphology; details: dose of 1 μM, in comparison to the inhibitor-free control, FIG. 13e
Method: Mosaic Assay: Mosaic Podo/Tert256 human podocytes (a mixture of GFP-labelled cells and non-fluorescent cells at a ratio of 1:11) were cultured and seeded in the same way as regular human podocytes as described above. At the study endpoint, cells were fixed with PFA, stained with rhodamine-wheat germ agglutinin (WGA), and mounted with DAPI-containing mounting media as described above. Samples were imaged via confocal microscopy using a Zeiss LSM 880 Super Resolution Confocal microscope to allow sufficient resolution to visualize interdigitated morphology. Z-stacked images spanning the entire section with visible signals were taken for each sample. The images were first processed using Zeiss's ZenDesk software to increase the contrast of GFP-positive cells' morphology as follows: the FITC channel was adjusted by setting gamma to 2.5 and adjusting the white point to 30. The DAPI channel's white point was adjusted to 80. In Photoshop or Fiji, the magic wand tool was used to select single fluorescent cells, create binary masks, and export binary images of single cells. Single cells were verified by overlaying nuclei with the cell images to ensure each cell only contained one nucleus. Binary images were then outlined in Fiji, and fractal analysis was performed using the FracLac plugin where the standard box-counting algorithm was used, with the background locked to white. […]

[3] = tested on: human podocyte cell line on HF substrates; test: Lactate dehydrogenase (LDH) release assay of Mosaic assay cells; details: dose of 1 μM, FIG. 13d
Method: YAP Inhibition Study: HF and NT scaffolds were prepared as described above. Mosaic human podocytes were seeded on top of the scaffolds at a concentration of 50,000 cells/cm^2 (100,000 cells per scaffold). […] Samples were fixed on day 5. Media was collected and lactate dehydrogenase assay (LDH) assay (Cayman) was performed according to manufacturer's protocol to validate cell viability. Mosaic assay imaging and analysis were performed as described above.

| Compound | injury response: fractal dimension of cell morphology [1] | Df of podocyte morphology [2] | cell viability (LDH release) [3] |
| --- | --- | --- | --- |
| COc1cccc2c1C(=O)c1c(O)c3c(c(O)c1C2=O)C[C@@](O)(C(=O)CO)C[C@@H]3O[C@H]1C[C@H](N)[C@H](O)[C@H](C)O1 [Adriamycin, doxorubicin] | reduced fractal dimension of cell morphology |  |  |
| Verteporfin |  | decreased significantly | did not show any significant deterioration of cell viability |
